For 7 compounds, GI50 and TGI results are on record in PubChem BioAssay (NCI).

Some test systems named below: K-562 leukemia; OVCAR-4 ovarian; SF-268 CNS; SW-620 colon; SK-MEL-5 melanoma; XF 498 CNS; RPMI-8226 leukemia; HOP-18 NSCLC; MDA-MB-231 breast; A498 renal.
Common to all, as to experiment: growth of human tumour cells (NCI), 48 h

“And” between values parts separate entries of the source, which are not always exact repeats. Equal entries are not always repeated.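 Grown in 96-well plates, cells were treated for 48 hours with each compound at five concentrations. Insufficient inhibition: endpoint recorded as highest concentration tested. Here, GI50 denotes the concentration required for 50% inhibition of growth. TGI: concentration producing complete growth inhibition.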 Where only a bound is given, the exact number is not on record here.

For `O=C([O][Hg][CH2]C1COC([CH2][Hg][O]C(=O)c2ccccc2)CO1)c1ccccc1` (stereo unspecified), the GI50 is 0.648 µM and 0.945 µM in the assay on K-562 leukemia; 11.3 µM in the assay with OVCAR-4 ovarian; 17.9 µM and 3.51 µM in the assay on SF-268 CNS; 1.64 µM with SW-620 colon; 15.1 µM and 2.85 µM in the assay on SK-MEL-5 melanoma; 17.7 µM in the assay on XF 498 CNS. Moreover, the GI50 is 1.97 µM and 2.14 µM in the assay on RPMI-8226 leukemia; 10.8 µM in the assay on HOP-18 NSCLC; 19.3 µM and 4.48 µM with MDA-MB-231 breast; 18.8 µM in the assay with A498 renal. The TGI was 2.87 µM in the assay on K-562 leukemia; 25.2 µM in the assay with OVCAR-4 ovarian; 34 µM and 15.5 µM in the assay on SF-268 CNS; 3.04 µM in the assay on SW-620 colon; 28.6 µM and 10.7 µM in the assay on SK-MEL-5 melanoma; 31.6 µM in the assay on XF 498 CNS. Also, the TGI in the assay on RPMI-8226 leukemia was 8.46 µM and 6.07 µM; in the assay on HOP-18 NSCLC it was 23.5 µM; in the assay on MDA-MB-231 breast it was 41.9 µM and 16.4 µM; in the assay with A498 renal, 33.1 µM.

Regarding `COc1ccc2c3c(n(Cc4ccccc4)c(=O)c2c1)-c1cc(OC)c(OC)cc1C3C` (stereo unspecified), the TGI is more than 100 µM in the assay on K-562 leukemia; 47.7 µM with OVCAR-4 ovarian; more than 63.6 µM in the assay on SF-268 CNS; more than 100 µM in the assay with SW-620 colon; 51.5 µM in the assay with SK-MEL-5 melanoma; 38 µM in the assay on XF 498 CNS. Moreover, the results for the TGI in the assay on RPMI-8226 leukemia, in the assay with HOP-18 NSCLC and with A498 renal were more than 100 µM, more than 100 µM and 97.8 µM, respectively.

Regarding `CN(N=O)C(=O)N[C@@H](C=O)[C@@H](O)[C@H](O)[C@H](O)CO`, the GI50 in the assay with K-562 leukemia, in the assay on OVCAR-4 ovarian, in the assay with SF-268 CNS, in the assay on SW-620 colon, in the assay with SK-MEL-5 melanoma and in the assay on XF 498 CNS was more than 750 µM in each case. In addition, the GI50 in the assay with RPMI-8226 leukemia and in the assay with HOP-18 NSCLC was more than 750 µM throughout. Further, the TGI in the assay with K-562 leukemia was 560 µM and > 750 µM; with OVCAR-4 ovarian, 609 µM and > 750 µM; in the assay on SF-268 CNS, more than 750 µM; in the assay on SW-620 colon it was 590 µM and > 750 µM; in the assay on SK-MEL-5 melanoma it was 631 µM and > 750 µM; with XF 498 CNS it was more than 750 µM. For the same compound, the TGI in the assay with RPMI-8226 leukemia is 612 µM and > 750 µM; in the assay with HOP-18 NSCLC it was 216 µM and > 750 µM; in the assay with MDA-MB-231 breast, more than 750 µM; with A498 renal, more than 628 µM.

Regarding `CC1(C)OC(C[C@]2(C#N)C[C@H](CCl)OC(C)(C)O2)C[C@@H](C[C@]2(C#N)C[C@H](CCl)OC(C)(C)O2)O1` (stereo partly specified), the TGI in the assay on K-562 leukemia, in the assay on OVCAR-4 ovarian, in the assay on SF-268 CNS, in the assay on SW-620 colon, in the assay on SK-MEL-5 melanoma and in the assay on XF 498 CNS was more than 100 µM in each case. For the same compound, the TGI in the assay on RPMI-8226 leukemia, with HOP-18 NSCLC and in the assay on A498 renal was more than 100 µM in each case.

Regarding `CC1(C)CCc2cc3c(cc2O1)OCC1c2cc4c(cc2OC31)OCO4` (stereo unspecified), the TGI in the assay with K-562 leukemia, with OVCAR-4 ovarian, with SF-268 CNS, in the assay on SW-620 colon, in the assay on SK-MEL-5 melanoma and in the assay on XF 498 CNS was more than 100 µM in each case. For the same compound, the TGI in the assay with RPMI-8226 leukemia, with HOP-18 NSCLC and in the assay with A498 renal was more than 100 µM in each case.

On to `COc1ccc(C(=O)C(C(=O)C(=O)Nc2ccc(Cl)c(Cl)c2)c2ccc(OC)cc2)cc1` (stereo unspecified), for which the TGI in the assay with K-562 leukemia, with OVCAR-4 ovarian, in the assay with SF-268 CNS, with SW-620 colon, with SK-MEL-5 melanoma and in the assay with XF 498 CNS was more than 100 µM each time. Further, the TGI in the assay on RPMI-8226 leukemia, with HOP-18 NSCLC and in the assay with A498 renal was more than 100 µM in each case.

As for `O=c1c2ccccc2n2n1CC(O)C2` (stereo unspecified), the TGI in the assay with K-562 leukemia, with OVCAR-4 ovarian, with SF-268 CNS, with SW-620 colon, with SK-MEL-5 melanoma and in the assay with XF 498 CNS was more than 100 µM in each case. Also, the TGI in the assay with RPMI-8226 leukemia, with HOP-18 NSCLC, with MDA-MB-231 breast and in the assay on A498 renal was more than 100 µM throughout. Moreover, the GI50 in the assay with MDA-MB-231 breast and in the assay on A498 renal was more than 100 µM in each case.
